# In ChEMBL document CHEMBL3886855, “Pyrazine derivatives” (2016):
# Experiments:
# Cannabinoid receptor 1 = Cannabinoid receptor 1 (Homo sapiens, UniProt P21554); assay: (§1) cAMP Assay: CHO cells expressing human CB1 or CB2 receptors are seeded 17-24 hours prior to the experiment 50.000 cells per well in a black 96 well plate with flat clear bottom (Corning Costar #3904) in DMEM (Invitrogen No. 31331), 1×HT supplement, with 10% fetal calf serum and incubated at 5% CO2 and 37° C. in a humidified incubator. The growth medium was exchanged with Krebs Ringer Bicarbonate buffer with 1 mM IBMX and incubated at 30° C. for 30 min. Compounds were added to a final assay volume of 100 μl and incubated for 30 min at 30° C. Using the cAMP-Nano-TRF detection kit the assay (Roche Diagnostics) was stopped by the addition of 50 μl lysis reagent (Tris, NaCl, 1.5% Triton X100, 2.5% NP40, 10% NaN3) and 50 μl detection solutions (20 μM mAb Alexa700-cAMP 1:1, and 48 μM Ruthenium-2-AHA-cAMP) and shaken for 2 h at room temperature. The time-resolved energy transfer is measured by a TRF reader (Evotec Technologies GmbH), equipped with a ND:YAG laser as excitation source. The plate is measured twice with the excitation at 355 nm and at the emission with a delay of 100 ns and a gate of 100 ns, total exposure time 10s at 730 (bandwidth 30 nm) or 645 nm (bandwidth 75 nm), respectively.; assay type: functional, cell-based
# Cannabinoid receptor 2 = Cannabinoid receptor 2 (Homo sapiens, UniProt P34972); assay: as §1; assay type: functional, cell-based
# Chain of Cannabinoid receptor 2 (P34972 whole entry): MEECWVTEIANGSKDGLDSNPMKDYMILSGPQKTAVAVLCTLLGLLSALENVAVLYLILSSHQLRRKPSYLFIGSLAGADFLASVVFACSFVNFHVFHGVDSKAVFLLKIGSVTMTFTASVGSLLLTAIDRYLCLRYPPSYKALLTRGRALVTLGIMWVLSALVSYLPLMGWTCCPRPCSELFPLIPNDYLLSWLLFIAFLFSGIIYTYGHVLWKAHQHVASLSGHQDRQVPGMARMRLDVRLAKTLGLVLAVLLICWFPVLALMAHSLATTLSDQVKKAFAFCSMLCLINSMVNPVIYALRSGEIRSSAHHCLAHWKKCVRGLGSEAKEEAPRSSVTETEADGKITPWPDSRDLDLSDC
# Chain of Cannabinoid receptor 1 (P21554 whole entry): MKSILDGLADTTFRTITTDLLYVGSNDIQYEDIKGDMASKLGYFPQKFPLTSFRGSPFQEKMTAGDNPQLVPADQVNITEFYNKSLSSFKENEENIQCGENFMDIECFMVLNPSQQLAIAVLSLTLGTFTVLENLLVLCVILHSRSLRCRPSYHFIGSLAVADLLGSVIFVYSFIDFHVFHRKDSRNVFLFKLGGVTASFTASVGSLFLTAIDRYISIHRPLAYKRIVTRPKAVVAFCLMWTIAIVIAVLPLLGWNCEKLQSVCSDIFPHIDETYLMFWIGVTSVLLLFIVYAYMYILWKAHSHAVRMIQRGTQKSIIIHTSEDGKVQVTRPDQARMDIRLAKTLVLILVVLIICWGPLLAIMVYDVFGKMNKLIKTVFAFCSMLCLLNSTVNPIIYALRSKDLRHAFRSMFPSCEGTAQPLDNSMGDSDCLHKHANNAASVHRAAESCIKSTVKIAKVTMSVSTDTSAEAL
structure (smiles),measurement,setting,value
CNC(=O)C(CC1CCC1)NC(=O)c1cnc(N2CC(F)(F)C2)c(OCC2CC2)n1 (centres undefined),EC50,Cannabinoid receptor 1,> 10000 nM
same,EC50,Cannabinoid receptor 2,51.7 nM
CC(C)(O)[C@H](CC1CC1)NC(=O)c1cnc(C2CC2)c(OCC2CC2)n1,EC50,Cannabinoid receptor 1,> 10000 nM
same,EC50,Cannabinoid receptor 2,198 nM
O=C(NN1CCCCC1)c1cnc(C2CC2)c(OCC2CC2)n1,EC50,Cannabinoid receptor 1,> 10000 nM
same,EC50,Cannabinoid receptor 2,327 nM
O=C(NC1(CO)CCCCC1)c1cnc(N2CC(F)(F)C2)c(OCC2CC2)n1,EC50,Cannabinoid receptor 1,> 10000 nM
same,EC50,Cannabinoid receptor 2,1.8 nM
CC(C)(CCc1ccncc1)NC(=O)c1cnc(C2CC2)c(OCC2CC2)n1,EC50,Cannabinoid receptor 2,280 nM
